Data reported in ChEMBL document CHEMBL1641605, “Diphenylpropynone derivatives as probes for imaging β-amyloid plaques in Alzheimer's brains” (Bioorg Med Chem Lett, 2011).
pKi: −log10 of the molar value. Calls of active or inactive are those of the source. No cut-off for these calls is given here.

What was measured:
Liver [1] = assay: Biodistribution in ddY mouse liver assessed as per gram of tissue at 0.3 to 0.5 uCi, iv after 10 mins by gamma counting; assay type: ADME, organism-based; conditions: in vivo
Liver [2] = assay: Biodistribution in ddY mouse liver assessed as per gram of tissue at 0.3 to 0.5 uCi, iv after 2 mins by gamma counting; assay type: ADME, organism-based; conditions: in vivo
Intestine [3] = assay: Biodistribution in ddY mouse intestine assessed as per organ at 0.3 to 0.5 uCi, iv after 2 mins by gamma counting; assay type: ADME, organism-based; conditions: in vivo
Blood [4] = assay: Biodistribution in ddY mouse blood assessed as per gram of tissue at 0.3 to 0.5 uCi, iv after 60 mins by gamma counting; assay type: ADME, organism-based; conditions: in vivo, 1 h
Stomach [5] = assay: Biodistribution in ddY mouse stomach assessed as per gram of tissue at 0.3 to 0.5 uCi, iv after 30 mins by gamma counting; assay type: ADME, organism-based; conditions: in vivo, 0.5 h
Brain [6] = assay: Biodistribution in ddY mouse brain assessed as per gram of tissue at 0.3 to 0.5 uCi, iv after 2 mins by gamma counting; assay type: ADME, organism-based; conditions: in vivo
Pancreas [7] = assay: Biodistribution in ddY mouse pancreas assessed as per gram of tissue at 0.3 to 0.5 uCi, iv after 60 mins by gamma counting; assay type: ADME, organism-based; conditions: in vivo, 1 h
Kidney [8] = assay: Biodistribution in ddY mouse kidney assessed as per gram of tissue at 0.3 to 0.5 uCi, iv after 60 mins by gamma counting; assay type: ADME, organism-based; conditions: in vivo, 1 h
Pancreas [9] = assay: Biodistribution in ddY mouse pancreas assessed as per gram of tissue at 0.3 to 0.5 uCi, iv after 10 mins by gamma counting; assay type: ADME, organism-based; conditions: in vivo
Kidney [10] = assay: Biodistribution in ddY mouse kidney assessed as per gram of tissue at 0.3 to 0.5 uCi, iv after 30 mins by gamma counting; assay type: ADME, organism-based; conditions: in vivo, 0.5 h
Brain [11] = assay: Biodistribution in ddY mouse brain assessed as per gram of tissue at 0.3 to 0.5 uCi, iv after 10 mins by gamma counting; assay type: ADME, organism-based; conditions: in vivo
Heart [12] = assay: Biodistribution in ddY mouse heart assessed as per gram of tissue at 0.3 to 0.5 uCi, iv after 60 mins by gamma counting; assay type: ADME, organism-based; conditions: in vivo, 1 h
Pancreas [13] = assay: Biodistribution in ddY mouse pancreas assessed as per gram of tissue at 0.3 to 0.5 uCi, iv after 2 mins by gamma counting; assay type: ADME, organism-based; conditions: in vivo
Spleen [14] = assay: Biodistribution in ddY mouse spleen assessed as per gram of tissue at 0.3 to 0.5 uCi, iv after 30 mins by gamma counting; assay type: ADME, organism-based; conditions: in vivo, 0.5 h
Stomach [15] = assay: Biodistribution in ddY mouse stomach assessed as per gram of tissue at 0.3 to 0.5 uCi, iv after 60 mins by gamma counting; assay type: ADME, organism-based; conditions: in vivo, 1 h
Liver [16] = assay: Biodistribution in ddY mouse liver assessed as per gram of tissue at 0.3 to 0.5 uCi, iv after 30 mins by gamma counting; assay type: ADME, organism-based; conditions: in vivo, 0.5 h
Blood [17] = assay: Biodistribution in ddY mouse blood assessed as per gram of tissue at 0.3 to 0.5 uCi, iv after 2 mins by gamma counting; assay type: ADME, organism-based; conditions: in vivo
Heart [18] = assay: Biodistribution in ddY mouse heart assessed as per gram of tissue at 0.3 to 0.5 uCi, iv after 2 mins by gamma counting; assay type: ADME, organism-based; conditions: in vivo
Intestine [19] = assay: Biodistribution in ddY mouse intestine assessed as per organ at 0.3 to 0.5 uCi, iv after 60 mins by gamma counting; assay type: ADME, organism-based; conditions: in vivo, 1 h
Blood [20] = assay: Biodistribution in ddY mouse blood assessed as per gram of tissue at 0.3 to 0.5 uCi, iv after 10 mins by gamma counting; assay type: ADME, organism-based; conditions: in vivo
Heart [21] = assay: Biodistribution in ddY mouse heart assessed as per gram of tissue at 0.3 to 0.5 uCi, iv after 10 mins by gamma counting; assay type: ADME, organism-based; conditions: in vivo
Kidney [22] = assay: Biodistribution in ddY mouse kidney assessed as per gram of tissue at 0.3 to 0.5 uCi, iv after 10 mins by gamma counting; assay type: ADME, organism-based; conditions: in vivo
Spleen [23] = assay: Biodistribution in ddY mouse spleen assessed as per gram of tissue at 0.3 to 0.5 uCi, iv after 2 mins by gamma counting; assay type: ADME, organism-based; conditions: in vivo
Liver [24] = assay: Biodistribution in ddY mouse liver assessed as per gram of tissue at 0.3 to 0.5 uCi, iv after 60 mins by gamma counting; assay type: ADME, organism-based; conditions: in vivo, 1 h
Intestine [25] = assay: Biodistribution in ddY mouse intestine assessed as per organ at 0.3 to 0.5 uCi, iv after 10 mins by gamma counting; assay type: ADME, organism-based; conditions: in vivo
Brain [26] = assay: Biodistribution in ddY mouse brain assessed as per gram of tissue at 0.3 to 0.5 uCi, iv after 30 mins by gamma counting; assay type: ADME, organism-based; conditions: in vivo, 0.5 h
Kidney [27] = assay: Biodistribution in ddY mouse kidney assessed as per gram of tissue at 0.3 to 0.5 uCi, iv after 2 mins by gamma counting; assay type: ADME, organism-based; conditions: in vivo
Stomach [28] = assay: Biodistribution in ddY mouse stomach assessed as per gram of tissue at 0.3 to 0.5 uCi, iv after 2 mins by gamma counting; assay type: ADME, organism-based; conditions: in vivo
Heart [29] = assay: Biodistribution in ddY mouse heart assessed as per gram of tissue at 0.3 to 0.5 uCi, iv after 30 mins by gamma counting; assay type: ADME, organism-based; conditions: in vivo, 0.5 h
Spleen [30] = assay: Biodistribution in ddY mouse spleen assessed as per gram of tissue at 0.3 to 0.5 uCi, iv after 60 mins by gamma counting; assay type: ADME, organism-based; conditions: in vivo, 1 h
Intestine [31] = assay: Biodistribution in ddY mouse intestine assessed as per organ at 0.3 to 0.5 uCi, iv after 30 mins by gamma counting; assay type: ADME, organism-based; conditions: in vivo, 0.5 h
Brain [32] = assay: Biodistribution in ddY mouse brain assessed as per gram of tissue at 0.3 to 0.5 uCi, iv after 60 mins by gamma counting; assay type: ADME, organism-based; conditions: in vivo, 1 h
Stomach [33] = assay: Biodistribution in ddY mouse stomach assessed as per gram of tissue at 0.3 to 0.5 uCi, iv after 10 mins by gamma counting; assay type: ADME, organism-based; conditions: in vivo
Pancreas [34] = assay: Biodistribution in ddY mouse pancreas assessed as per gram of tissue at 0.3 to 0.5 uCi, iv after 30 mins by gamma counting; assay type: ADME, organism-based; conditions: in vivo, 0.5 h
Blood [35] = assay: Biodistribution in ddY mouse blood assessed as per gram of tissue at 0.3 to 0.5 uCi, iv after 30 mins by gamma counting; assay type: ADME, organism-based; conditions: in vivo, 0.5 h
Spleen [36] = assay: Biodistribution in ddY mouse spleen assessed as per gram of tissue at 0.3 to 0.5 uCi, iv after 10 mins by gamma counting; assay type: ADME, organism-based; conditions: in vivo
[37] = target: Amyloid-beta precursor protein (Homo sapiens, UniProt P05067); assay: Displacement of [125I]DMIC from Amyloid beta (1 to 42) after 3 hrs by gamma counting
Mus musculus [38] = species: Mus musculus; assay: Binding affinity to beta-amyloid in Tg2576 transgenic mouse brain after 3 mins by microscopic analysis; assay type: tissue-based
Mus musculus [39] = species: Mus musculus; assay: Binding affinity to beta-amyloid in wild type mouse brain after 3 mins by microscopic analysis; assay type: tissue-based

Sequence of Amyloid-beta precursor protein (P05067 whole entry): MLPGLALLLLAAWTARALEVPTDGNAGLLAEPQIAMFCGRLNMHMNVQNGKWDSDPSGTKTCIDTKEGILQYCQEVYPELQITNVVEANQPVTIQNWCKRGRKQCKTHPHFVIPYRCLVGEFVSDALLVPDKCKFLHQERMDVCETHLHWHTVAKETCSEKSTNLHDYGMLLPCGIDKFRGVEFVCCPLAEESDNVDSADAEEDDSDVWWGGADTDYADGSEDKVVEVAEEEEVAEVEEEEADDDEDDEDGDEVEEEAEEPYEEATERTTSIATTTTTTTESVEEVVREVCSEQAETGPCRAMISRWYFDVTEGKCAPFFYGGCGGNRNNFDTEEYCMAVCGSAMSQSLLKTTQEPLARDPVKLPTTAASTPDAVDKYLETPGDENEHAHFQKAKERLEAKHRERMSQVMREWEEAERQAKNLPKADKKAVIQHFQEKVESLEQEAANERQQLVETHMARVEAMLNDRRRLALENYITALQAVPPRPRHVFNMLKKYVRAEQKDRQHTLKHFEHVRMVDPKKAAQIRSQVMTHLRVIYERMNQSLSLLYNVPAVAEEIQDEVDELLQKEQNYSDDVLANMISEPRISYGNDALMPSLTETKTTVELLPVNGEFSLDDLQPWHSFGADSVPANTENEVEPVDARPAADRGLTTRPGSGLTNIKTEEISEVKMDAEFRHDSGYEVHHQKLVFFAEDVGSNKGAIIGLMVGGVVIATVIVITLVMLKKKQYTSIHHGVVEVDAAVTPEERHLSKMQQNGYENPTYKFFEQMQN

For `CN(C)c1ccc(C#CC(=O)c2ccc([125I])cc2)cc1`, the Drug uptake (Liver [1]) was 15.29 %ID, the Drug uptake (Liver [2]) was 19.96 %ID and the Drug uptake (Intestine [3]) was 2.73 %ID. For the same compound, the Drug uptake (Blood [4]) was 3.07 %ID, the Drug uptake (Stomach [5]) was 2.35 %ID and the Drug uptake (Brain [6]) was 1.55 %ID. It also gave a Drug uptake (Pancreas [7]) of 2.09 %ID, a Drug uptake (Kidney [8]) of 7.75 %ID and a Drug uptake (Pancreas [9]) of 3.39 %ID. For the same compound, the Drug uptake (Kidney [10]) was 8.34 %ID, the Drug uptake (Brain [11]) was 1.23 %ID and the Drug uptake (Heart [12]) was 4.94 %ID. The Drug uptake (Pancreas [13]) was 3.9 %ID, the Drug uptake (Spleen [14]) was 5.47 %ID and the Drug uptake (Stomach [15]) was 1.46 %ID. The Drug uptake (Liver [16]) was 12.02 %ID, the Drug uptake (Blood [17]) was 6.19 %ID and the Drug uptake (Heart [18]) was 10 %ID. For the same compound, the Drug uptake (Intestine [19]) was 14.02 %ID, the Drug uptake (Blood [20]) was 5.44 %ID and the Drug uptake (Heart [21]) was 7.53 %ID. For the same compound, the Drug uptake (Kidney [22]) was 9.81 %ID, the Drug uptake (Spleen [23]) was 4.41 %ID and the Drug uptake (Liver [24]) was 10.06 %ID. It also gave a Drug uptake (Intestine [25]) of 8.44 %ID, a Drug uptake (Brain [26]) of 0.93 %ID and a Drug uptake (Kidney [27]) of 10.45 %ID. It also gave a Drug uptake (Stomach [28]) of 0.75 %ID, a Drug uptake (Heart [29]) of 6.03 %ID and a Drug uptake (Spleen [30]) of 4.43 %ID. The Drug uptake (Intestine [31]) was 12.04 %ID, the Drug uptake (Brain [32]) was 0.76 %ID and the Drug uptake (Stomach [33]) was 2.97 %ID. For the same compound, the Drug uptake (Pancreas [34]) was 2.57 %ID, the Drug uptake (Blood [35]) was 3.94 %ID and the Drug uptake (Spleen [36]) was 5.19 %ID.
`O=C(C#Cc1ccc(O)cc1)c1ccc(I)cc1` gave a pKi [37] of 6.49.
`CN(C)c1ccc(C#CC(=O)c2ccc(I)cc2)cc1` was tested, and the Activity (Mus musculus [38]) was “Active”, the Activity (Mus musculus [39]) was “inactive” and the pKi [37] was 8.22.
Compound `COc1ccc(C#CC(=O)c2ccc(I)cc2)cc1` has a pKi [37] of 7.86.
In the case of `CN(C)c1ccc(C#CC(=O)c2ccc(F)cc2)cc1`, the pKi [37] was 7.69.
